Experiment [1] deals with ET-1 induced MAPK phosphorylation in MC3T3.E1/J1 cells. The experiment is described as follows: Inhibition of ET-1 induced MAPK phosphorylation in osteoblast cell line MC3T3.E1/J1 (western blot, densitometry). It is filed as cell-based, mouse. The settings on record: Serum Free Media = 100.00. Here is the method:
The MC3T3. E1/J1 cell line was isolated from a parental cell line, MC3T3-E1 (available from Invitrogen), which had in turn been derived from newborn C57BL/6 mouse calvaria. The MC3T3 E1/J1 line is described as an osteoblastic line. To initiate the experiments described below, MC3T3.E1/J1 cells were plated at a density of 2.4×10^4 cells/well (24 well plates) in serum containing media and incubated for 48 hours. The cells were washed twice in PBS and re-incubated for approximately 17 hours in serum starvation media.
All media was then removed and the cells lysed and stored at −20° C. for electrophoresis/western blot, which localized phosphorylated MAPK and phosphorylated Akt probing with anti-phospho-p44/42 MAPK (Thr 202/204) and anti-Phospho AKT (Ser 473) antibodies (both commercially available from Cell Signalling Technology). The protein bands were quantitated by densitometry, and plotted as arbitrary densitometry units. Phosphorylated MAPK levels were normalised to total MAPK levels.

The target of experiment [2] is T1, Human recombinant ETB receptor (Homo sapiens, UniProt P24530).
T1 construct: expressed in transfected cells; host or cells: mouse erythroleukaemic (MEL) cells, membrane preparation
T1 sequence (P24530 27-442): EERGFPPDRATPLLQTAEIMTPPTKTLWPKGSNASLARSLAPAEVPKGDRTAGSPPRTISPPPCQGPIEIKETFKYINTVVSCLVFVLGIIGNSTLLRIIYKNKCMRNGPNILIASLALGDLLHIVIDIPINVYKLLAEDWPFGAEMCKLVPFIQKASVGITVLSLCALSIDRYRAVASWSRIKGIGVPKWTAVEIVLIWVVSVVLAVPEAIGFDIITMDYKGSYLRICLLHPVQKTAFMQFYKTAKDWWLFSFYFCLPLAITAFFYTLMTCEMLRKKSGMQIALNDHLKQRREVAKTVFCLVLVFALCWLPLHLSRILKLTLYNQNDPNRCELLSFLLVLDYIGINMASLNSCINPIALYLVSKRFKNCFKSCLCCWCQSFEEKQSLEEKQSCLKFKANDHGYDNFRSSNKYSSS
Description: Endothelin human receptor binding assay (125I-ET-1 competition), ETB. The settings on record: at a concentration of 10^-4 M, n=3. An excerpt: 1) Endothelin Human Receptor Binding Assay

The next experiment deals with endothelin receptors. The experiment is described as follows: Human forearm blood flow, vasoconstriction in response to infused ET-1. It is filed as in vivo. The settings on record: healthy male subjects, single oral doses 10 mg and 30 mg, 2-4 hours post dosing; p=0.0210; evidence of a dose response. An excerpt:
Human forearm blood flow can be assessed by temporarily impeding the venous drainage from the arm by the application of a pneumatic cuff on the upper arm, which is then inflated to just above venous pressure. The resulting arterial flow into the arm with no corresponding venous drainage leads to engorgement and swelling of the forearm, which can be detected with sensitive strain gauges. Infusion of the arterial vasoconstrictor ET-1 into the brachial artery leads to a reduction in forearm distension due to decreased arterial inflow. This vasoconstriction is mediated via endothelin receptors on the vascular endothelium and associated smooth muscle.

A further experiment relates to DU145 prostate tumour. Description: Inhibition of angiogenesis in primary tumours, intradermal DU145 tumour in nude mice. It is filed as in vivo. The settings on record: 5 days, vs vehicle. From the text:
(§1) A 1 cm^2 area with the tumour at the centre was examined and the number of blood vessels bifurcations within that area supplying the tumour were counted.

The next experiment deals with LOVO colon tumour. The experiment is described as follows: Inhibition of angiogenesis in primary tumours, intradermal LOVO tumour in nude mice. It is filed as in vivo. The settings on record: 5 days, vs vehicle.
Description: as §1

Several values for one entry are separate records, joined by “and”; a condition that tells them apart may be missing. Equal entries are not always repeated. Where no end group is shown, it is not given here.

Regarding `COc1nc(C)cnc1NS(=O)(=O)c1cccnc1-c1ccc(-c2nnco2)cc1` [Compound (I), N-(3-methoxy-5-methylpyrazin-2-yl)-2-(4-[1,3,4-oxadiazol-2-yl]phenyl)pyridine-3-sulphonamide], the “Phosphorylated MAPK, Average” value is on record as 422.11 arbitrary densitometry units in experiment [1] (ET-1 100 nm + Compound (I) 0.1 μm, normalised to total MAPK); 157.41 arbitrary densitometry units in experiment [1] (ET-1 100 nm + Compound (I) 1 μm, normalised to total MAPK); 105.15 arbitrary densitometry units in experiment [1] (ET-1 100 nm + Compound (I) 10 μm, normalised to total MAPK); 109.18 arbitrary densitometry units in experiment [1] (ET-1 100 nm + Compound (I) 20 μm, normalised to total MAPK). Moreover, the “mean displacement at the ETB receptor” value in experiment [2] is listed as 1.2±0.7%. For the same molecule, the “forearm blood flow in response to infused ET-1 compared to placebo” value in the experiment on endothelin receptors is given as “statistically significant reduction”. In addition, the “Inhibition of vessel count” value was 38% (P < 0.001) in the experiment with DU145 prostate tumour (25 mg/kg once daily p.o.); 30% (P < 0.05) in the experiment with DU145 prostate tumour (50 mg/kg once daily p.o.); 28% (P < 0.001) in the experiment on LOVO colon tumour (25 mg/kg once daily p.o.); 20% (P = 0.001) and 28% (P < 0.001) in the experiment with LOVO colon tumour (50 mg/kg once daily p.o., 50 mg/kg).

For “ET-1: endogenous 21 amino acid peptide, endothelin isoform; used as stimulus and radioligand (CSCSSLMDKECVYFCHLDIIW; ends and bridges not checked; cysteine pairing not given here; UniProt P05305 53-73, looked up) [reference compound]”, the “Phosphorylated MAPK, Average” value in experiment [1] (ET-1 100 nm alone, 3 minutes stimulation) is 312.78 arbitrary densitometry units and 369.85 arbitrary densitometry units.
